Data published in PMC7801736 (ACS infectious diseases, 2019).
≈ marks a conversion by molar mass, not a printed value. Where two headings read alike, the source gives them in different places.

Columns and labels:
[1] = tested on: M. tuberculosis strain fgd1::tn; assay: microbe, parasite or virus in culture; type: cell-based; settings: for MIC: Mycobacterium tuberculosis, read-out: MIC (µM) fgd1::tn; for MIC shift, fgd1::tn strain: fgd1::tn vs H37Rv
[2] = tested on: M. tuberculosis strain ddn::tn; assay: microbe, parasite or virus in culture; type: cell-based; settings: Mycobacterium tuberculosis, read-out: MIC (µM) ddn::tn
[3] = in vitro; type: cell-based; settings: African green monkey
[4] = target: purified M. tuberculosis InhA (Mycobacterium tuberculosis, UniProt P9WGR1); assay: biochemical
[5] = tested on: M. tuberculosis H37Rv; type: cell-based, Mycobacterium tuberculosis
[6] = tested on: M. tuberculosis fatty acid biosynthesis; type: cell-based, Mycobacterium tuberculosis
[7] = tested on: M. tuberculosis streptomycin-sensitive (ss18b) strain; type: cell-based, Mycobacterium tuberculosis; settings: streptomycin-starved nonreplicating model; 7 days treatment
[8] = tested on: M. tuberculosis H37Rv; assay: Griess assay for NO· quantification, H37Rv; type: cell-based, Mycobacterium tuberculosis; settings: for NO· production (supernatant nitrite concentration), 20 µM compound / NO· production (supernatant nitrite concentration), 100 µM compound: 2 days
[9] = tested on: M. tuberculosis fgd1::tn; assay: Griess assay for NO· quantification, fgd1::tn; type: cell-based, Mycobacterium tuberculosis; settings: F420H2 cofactor deficiency; 20 or 100 µM
[10] = tested on: M. tuberculosis H37Rv; settings: for time of treatment after which intrabacterial metabolite was detectable: H37Rv, 20 µM JSF-2164
[11] = tested on: M. tuberculosis fgd1::tn; settings: 20 µM JSF-2164
[12] = target: InhA; settings: cited from earlier work
[13] = read-out: % InhA inhibition at 50 µM with 1% CMC Tween-20, 50 µM compound, 1% CMC Tween-20

Chain of purified M. tuberculosis InhA (P9WGR1 whole entry, looked up): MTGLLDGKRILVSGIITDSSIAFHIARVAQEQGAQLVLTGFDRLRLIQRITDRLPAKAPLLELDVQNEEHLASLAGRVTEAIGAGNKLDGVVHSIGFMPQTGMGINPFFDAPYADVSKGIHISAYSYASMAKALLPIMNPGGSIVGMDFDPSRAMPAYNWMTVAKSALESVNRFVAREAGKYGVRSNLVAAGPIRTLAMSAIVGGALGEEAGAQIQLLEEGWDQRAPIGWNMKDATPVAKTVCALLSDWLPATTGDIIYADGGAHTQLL

| Compound | MIC [1] [µM] | MIC shift, fgd1::tn strain [1] [fold] | MIC [2] [µM] | inhibition at 50 µM [4, 13] [%] | NO· production (supernatant nitrite concentration), 20 µM compound ([8]; 20 µM exposure) [µM] | NO· production (supernatant nitrite concentration), 100 µM compound ([8]; 100 µM exposure) [µM] | NO· production in fgd1::tn strain [9] | time of treatment after which intrabacterial metabolite was detectable [10] [min] | time of treatment after which intrabacterial metabolite was discernible [11] [h] | also measured |
| --- | --- | --- | --- | --- | --- | --- | --- | --- | --- | --- |
| COc1cccc(Nc2ccc([N+](=O)[O-])c3nonc23)c1 [JSF-2164, N-(3-methoxyphenyl)-7-nitrobenzo[c][1,2,5]oxadiazol-4-amine] | > 200 | > 20 | 8 (≈ 2.29 µg/mL) | 44 ± 1 | 0.84 | 6.7 | abolished |  |  | CC50 [3]: 44 to 87 µM; IC50 versus purified InhA relative to MIC against the H37Rv strain ([4]; IC50 larger than MIC): ca. 5 fold; IC50 ([4]; InhA IC50 (µM), without Tween-20, mean ± standard error): 51 µM; IC50 ([4]; InhA IC50 with Tween-20, Tween-20 at 1% of its CMC in enzymatic buffer): 65 ± 16 µM; inhibition at 50 µM ([4]; read-out: InhA Inhibition at 50 µM Cmpd, 50 µM compound, commercial material, mean ± standard error): ≥ 50%; inhibition at 50 µM ([4]; read-out: InhA inhibition at 50 µM compound, synthetic material, 50 µM compound, […]): 44%; bactericidal classification (MBC within 4-fold of MIC) [5]: not formally bactericidal; reduction in M. tuberculosis colony-forming units/mL ([5]; 16× MIC, over 7 days, H37Rv): ca. 1 log10; effect on MAMEs and FAMEs (TLC) [6]: did not exhibit a pattern similar to that for INH; in vitro efficacy versus ss18b strain [7]: exhibited in vitro efficacy; time at which intrabacterial compound was degraded to a negligible level ([10]; Mycobacterium tuberculosis): ≥ 4 h |
| COc1cccc(Nc2ccc(N)c3nonc23)c1 [JSF-3616, N4-(3-methoxyphenyl)-benzo[c][1,2,5]oxadiazole-4,7-diamine] | 32 (≈ 8.2 µg/mL) |  | 32 (≈ 8.2 µg/mL) | 46 ± 2.9 |  |  |  | 30 | 4 |  |
| COc1cccc(Nc2ccc3nonc3c2N)c1 [JSF-3617, N5-(3-methoxyphenyl)benzo[c][1,2,5]oxadiazole-4,5-diamine] | 125 (≈ 32 µg/mL) |  | 250 (≈ 64.1 µg/mL) | 77 ± 0.74 |  |  |  | 30 | 4 |  |
| CCCCCCc1ccc(Oc2ccccc2C)c(O)c1 [PT70] |  |  |  |  |  |  |  |  |  | Ki [12]: 7.8 nM; residence time [12]: 24 min |
| NNC(=O)c1ccncc1 [isoniazid, reference compound] | 0.078 (≈ 0.0107 µg/mL) |  | 0.078 (≈ 0.0107 µg/mL) |  |  |  |  |  |  |  |
| O=[N+]([O-])c1cn2c(n1)OC[C@@H](OCc1ccc(OC(F)(F)F)cc1)C2 [pretomanid] |  | > 500 |  |  | 9.8 | 17 | abolished |  |  | NO· release (ratio of nitrite concentration to compound dose), 20 µM compound ([8]; 20 µM exposure, initial 2 days): 49%; NO· release (ratio of nitrite concentration to compound dose), 100 µM compound ([8]; 100 µM exposure, initial 2 days): 17% |
